Calls of active or inactive are those of the source. Rule as the data show it: actives have a measured IC50 and inactives only a lower limit.
target: Envelope glycoprotein gp160 (Human immunodeficiency virus 1, UniProt Q6QLK5); assay: cell-free HIV fusion peptide-binding blockers – biochemical, uHTS, fluorescence dequenching, […] (AID 1986)
Sequence (Q6QLK5 whole entry, the tested form may be a part): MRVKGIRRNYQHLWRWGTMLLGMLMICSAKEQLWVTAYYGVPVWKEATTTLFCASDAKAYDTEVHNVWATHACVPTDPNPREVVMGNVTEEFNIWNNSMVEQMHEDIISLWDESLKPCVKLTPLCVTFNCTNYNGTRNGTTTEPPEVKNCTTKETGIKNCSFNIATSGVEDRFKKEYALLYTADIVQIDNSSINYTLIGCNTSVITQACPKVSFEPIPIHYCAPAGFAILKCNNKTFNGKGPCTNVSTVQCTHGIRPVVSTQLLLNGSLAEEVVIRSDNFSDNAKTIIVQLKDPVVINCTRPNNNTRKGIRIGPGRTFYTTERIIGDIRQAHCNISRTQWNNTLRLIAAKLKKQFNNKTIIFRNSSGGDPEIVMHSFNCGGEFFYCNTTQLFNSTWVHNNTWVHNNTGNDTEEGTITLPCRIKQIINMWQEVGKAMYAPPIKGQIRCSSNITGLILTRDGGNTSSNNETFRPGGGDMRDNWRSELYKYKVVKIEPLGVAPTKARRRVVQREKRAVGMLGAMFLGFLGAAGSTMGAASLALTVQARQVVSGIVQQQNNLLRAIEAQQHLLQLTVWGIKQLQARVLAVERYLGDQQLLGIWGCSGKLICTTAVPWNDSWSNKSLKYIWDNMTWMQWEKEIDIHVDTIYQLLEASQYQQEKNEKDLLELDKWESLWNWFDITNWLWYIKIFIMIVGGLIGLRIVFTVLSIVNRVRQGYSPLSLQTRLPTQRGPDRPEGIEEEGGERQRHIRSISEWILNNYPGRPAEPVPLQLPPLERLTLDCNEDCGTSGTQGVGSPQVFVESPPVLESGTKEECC

SMILES	IC50
COc1ccc(OC)c(N2C(=O)/C(=C/c3ccco3)C(=O)NC2=S)c1	12.6 µM (active)
N#Cc1c(O)nc(SCC(=O)N2c3ccccc3Sc3ccccc32)nc1-c1ccccc1	13.1 µM (active)
O=C1NN(c2ccc(Cl)cc2)C(=O)/C1=C\c1ccc(-c2cccc(C(=O)O)c2)o1	11.9 µM (active)
